Assays:
[1] = biological target: T1, hPK-M2 (Homo sapiens, UniProt P14618); assay: Fluorescent pyruvate kinase-lactate dehydrogenase (LDH) coupled secondary assay; assay type: biochemical; details: for Emax: read-out: maximum response, LDH assay; for LDH hPK, M2 Max. Res.: % activation at 57 μM of compound
Procedure: Fluorescent Pyruvate Kinase-Lactate Dehydrogenase Coupled Secondary Assay.
Plates were immediately placed in ViewLux (Perkin Elmer) and NADH fluorescence was determined at 30 second exposure intervals for between 3 and 6 minutes. Data were normalized to the uninhibited and EC100 activation using known activators such as fructose-1,6-bis-phosphate. […] Data was collected on the Perkin Elmer Viewlux.

[2] = biological target: T1, hPK-M2; assay: Luminescent pyruvate kinase-luciferase coupled assay (KinaseGlo); assay type: biochemical; details: for activation at 57 µM / hPK, M2 Max. Res.: KinaseGlo, % activation at 57 μM of compound; for activation at 57 µM: read-out: hPK, M2 Max. Res.; for Emax: read-out: maximum response
In short: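 Activation assay with 0.1 mM ADP and 0.5 mM PEP in 50 mM imidazole pH 7.2, 50 mM KCl, 7 mM MgCl2, 0.01% tween 20, 0.05% BSA; 1 h at r.t. ATP produced was read by luciferase luminescence. AC50 values were normalized to DMSO (uninhibited enzyme) and no-enzyme controls.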

[3] = luminescent pyruvate kinase-luciferase coupled assay (KinaseGlo), tables, read-out: hPK, M2 AC50
[4] = luciferase-coupled assay, read-out: AC50
[5] = luciferase-coupled assay, relative to activation by FBP
[6] = tables, read-out: LDH hPK, M2 AC50

T1 sequence (P14618 whole entry): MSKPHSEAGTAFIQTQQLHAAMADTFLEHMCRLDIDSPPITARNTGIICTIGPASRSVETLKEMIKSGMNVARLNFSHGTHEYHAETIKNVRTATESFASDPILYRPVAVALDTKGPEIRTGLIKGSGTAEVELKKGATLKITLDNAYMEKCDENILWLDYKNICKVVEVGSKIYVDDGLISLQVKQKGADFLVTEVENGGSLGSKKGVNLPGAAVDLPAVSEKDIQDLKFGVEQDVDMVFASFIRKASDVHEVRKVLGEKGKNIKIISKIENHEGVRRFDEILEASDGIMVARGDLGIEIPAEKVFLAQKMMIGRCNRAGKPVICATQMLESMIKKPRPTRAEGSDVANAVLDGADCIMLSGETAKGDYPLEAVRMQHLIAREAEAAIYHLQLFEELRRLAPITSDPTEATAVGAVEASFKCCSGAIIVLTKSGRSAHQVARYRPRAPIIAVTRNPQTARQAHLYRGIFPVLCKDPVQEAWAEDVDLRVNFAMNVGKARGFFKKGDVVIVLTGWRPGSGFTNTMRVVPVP

SMILES	activation at 57 µM [2]	AC50 [2, 3]	Emax [2, 5]	hPK, M2 Max. Res. [2]	LDH hPK, M2 Max. Res. [1]	AC50 [1, 6]	AC50 ([1]; read-out: AC50, LDH assay)	Emax [1]	AC50 [2, 4]	maximum response, LDH assay [1]	maximum response [2, 5]
O=S(=O)(c1c(F)cccc1F)N1CCN(S(=O)(=O)c2c(F)cccc2F)CC1 [Compound 22, 1,4-bis(2,6-difluorophenylsulfonyl)piperazine]	74.3 ± 9.8%	0.066 µM					0.172 ± 0.029 µM	85 ± 8%			
O=S(=O)(c1ccc2c(c1)OCCCO2)N1CCN(S(=O)(=O)c2c(F)cccc2F)CC1 [Compound 23, 1-(2,6-difluorophenylsulfonyl)-4-(3,4-dihydro-2,1-benzo[b][1,4]dioxepin-7-ylsulfonyl)piperazine]	100 ± 6.6%						~0.5 µM	109 ± 11%	0.103 µM		
O=S(=O)(c1ccc2ccccc2c1)N1CCN(S(=O)(=O)c2c(F)cccc2F)CC1 [Compound 26, 1-(2,6-difluorophenylsulfonyl)-4-(naphthalen-2-ylsulfonyl)piperazine]	138 ± 11.3%	0.066 µM					0.22 ± 0.053 µM	161 ± 29%			
O=S(=O)(N[C@H]1CC[C@H](NS(=O)(=O)c2c(F)cccc2F)CC1)c1ccc2c(c1)OCCO2 [Compound 37, N-((trans)-4-(2,6-difluorophenylsulfonamido)cyclohexyl)-2,3-dihydrobenzo[b][1,4]dioxine-6-sulfonamide]	90.8 ± 12.4%						7 ± 1.5 µM	56 ± 11%	2.11 ± 0.64 µM		
O=S(=O)(N[C@H]1CC[C@@H](NS(=O)(=O)c2c(F)cccc2F)CC1)c1ccc2c(c1)OCCO2 [Compound 38, N-((cis)-4-(2,6-difluorophenylsulfonamido)cyclohexyl)-2,3-dihydrobenzo[b][1,4]dioxine-6-sulfonamide]	60.7 ± 5.6%	> 35 µM					7 ± 1.5 µM	56 ± 11%	37.1 ± 5 µM		
O=C1CN(S(=O)(=O)c2c(F)cccc2F)CCN1S(=O)(=O)c1ccc2c(c1)OCCO2 [Compound 49, 4-(2,6-difluorophenylsulfonyl)-1-(2,3-dihydrobenzo[b][1,4]dioxin-6-ylsulfonyl)piperazin-2-one]	105 ± 9%	0.114 ± 0.02 µM					0.44 ± 0.24 µM	87 ± 37%			
CC(C)c1cc2c(s1)c1cnn(Cc3ccccc3F)c(=O)c1n2C [Compound 69, 2-Isopropyl-4-methyl-6-[(2-fluorophenyl)methyl]-4H-thieno[3,2-b]pyrrole[3,2-d]pyridazinone]	106 ± 6.2%	0.142 ± 0.02 µM	100%				1.8 µM	302%			
Cn1c2cc([S+](C)[O-])sc2c2cnn(Cc3ccccc3F)c(=O)c21 (stereo not drawn) [Compound 73, 2-Methylsulfinyl-4-methyl-6-[(2-fluorophenyl)methyl]-4H-thieno[3,2-b]pyrrole[3,2-d]pyridazinone]	97.9 ± 3.1%	0.025 ± 0.01 µM					0.19 ± 0.01 µM	211%			
Cn1c2cc(C=O)sc2c2cnn(Cc3ccccc3F)c(=O)c21 [Compound 84, 2-Formyl-4-methyl-6-[(2-fluorophenyl)methyl]-4H-thieno[3,2-b]pyrrole[3,2-d]pyridazinone]	99.8 ± 6.5%	0.016 ± 0.01 µM					0.1 ± 0.01 µM	239%			
Cn1c2cc(CO)sc2c2cnn(Cc3ccccc3F)c(=O)c21 [Compound 85, 2-Hydroxylmethyl-4-methyl-6-[(2-fluorophenyl)methyl]-4H-thieno[3,2-b]pyrrole[3,2-d]pyridazinone]	103 ± 7.2%	0.048 ± 0.01 µM					0.22 ± 0.03 µM	155%			
CC(=O)c1cc2c(s1)c1cnn(Cc3ccccc3F)c(=O)c1n2C [Compound 87, 2-Acetyl-4-methyl-6-[(2-fluorophenyl)methyl]-4H-thieno[3,2-b]pyrrole[3,2-d]pyridazinone]	108 ± 4.9%	0.011 µM					0.15 ± 0.03 µM	200%			
Cc1cc2c(s1)c1cnn(Cc3ccc(Cl)cc3)c(=O)c1n2C [Compound 108, 2,4-Methyl-6-[(4-chlorophenyl)methyl]-4H-thieno[3,2-b]pyrrole[3,2-d]pyridazinone]	90.6 ± 3.3%	0.326 ± 0.09 µM					1.65 µM	191%			
Cc1cc2c(s1)c1cnn(Cc3ccc(C(F)(F)F)cc3)c(=O)c1n2C [Compound 110, 2,4-Methyl-6-[(4-trifluoromethylphenyl)methyl]-4H-thieno[3,2-b]pyrrole[3,2-d]pyridazinone]	56.1 ± 5.4%	0.553 ± 0.13 µM					2.2 µM	77%			
COc1ccc(Cn2ncc3c4sc(C)cc4n(C)c3c2=O)cc1 [Compound 111, 2,4-Methyl-6-[(4-methoxyphenyl)methyl]-4H-thieno[3,2-b]pyrrole[3,2-d]pyridazinone]	96.2 ± 2.5%	0.037 ± 0.01 µM					0.23 ± 0.04 µM	258%			
Cc1cc2c(s1)c1cnn(Cc3ccc(F)cc3F)c(=O)c1n2C [Compound 112, 2,4-Methyl-6-[(2,4-difluorophenyl)methyl]-4H-thieno[3,2-b]pyrrole[3,2-d]pyridazinone]		0.044 ± 0.01 µM					0.17 ± 0.03 µM	217%			
Cc1cc2c(s1)c1cnn(Cc3c(F)cccc3F)c(=O)c1n2C [Compound 113, 2,4-Methyl-6-[(2,6-difluorophenyl)methyl]-4H-thieno[3,2-b]pyrrole[3,2-d]pyridazinone]	93.8 ± 5%	0.049 ± 0.02 µM					0.14 ± 0.01 µM	240%			
COc1ccc(Cn2ncc3c4sc(C)cc4n(C)c3c2=O)cc1F [Compound 121, 2,4-Methyl-6-[(3-fluoro-4-methoxyphenyl)methyl]-4H-thieno[3,2-b]pyrrole[3,2-d]pyridazinone]				68.2 ± 7.9%			1 µM		0.225 ± 0.097 µM	135±20%	68.2%

Continued, in another order:

activation at 57 µM [2]	AC50 [2, 3]	Emax [2, 5]	hPK, M2 Max. Res. [2]	LDH hPK, M2 Max. Res. [1]	AC50 [1, 6]	SMILES	AC50 ([1]; read-out: AC50, LDH assay)	Emax [1]	AC50 [2, 4]	maximum response, LDH assay [1]	maximum response [2, 5]
96.9 ± 5.6%	2.42 ± 0.16 µM					O=C1CN(S(=O)(=O)c2ccc3c(c2)OCCO3)CCN1S(=O)(=O)c1c(F)cccc1F [Compound 50, 1-(2,6-difluorophenylsulfonyl)-4-(2,3-dihydrobenzo[b][1,4]dioxin-6-ylsulfonyl)piperazin-2-one]	3.16 µM	82%			
		< 80%				Cc1cc2c(s1)c1c(C)nn(Cc3ccccc3F)c(=O)c1n2C [Compound 92, 2,4,8-Methyl-6-[(2-fluorophenyl)methyl]-4H-thieno[3,2-b]pyrrole[3,241]-pyridazinone]		< 80%			
		< 80%				Cn1c2ccsc2c2ncn(Cc3ccccc3F)c(=O)c21 [Compound 100, 4-Methyl-6-[(2-fluorophenyl)methyl]-4H-thieno[3,2-b]pyrrole[3,2-d]pyrimidinone]		< 80%			
59.3 ± 18%		< 80%				Cc1cc2c(s1)c1cnn(Cc3ccc(C(F)(F)F)cc3F)c(=O)c1n2C [Compound 120, 2,4-Methyl-6-[(2-fluoro-4-trifluoromethylphenyl)methyl]-4H-thieno[3,2-b]pyrrole[3,2-d]pyridazinone]		< 80%			
82.6%	0.651 µM			170.98%	0.41 µM	Nc1ccc(S(=O)(=O)N2CCN(S(=O)(=O)c3c(F)cccc3F)CC2)cc1 [Compound 123]					
88.9%	0.0326 µM			169.71%		Nc1cccc(S(=O)(=O)N2CCCN(S(=O)(=O)c3ccc4c(c3)OCCO4)CC2)c1 [Compound 124]					
86.6%	0.103 µM			131.59%	0.163 µM	Nc1ccc(S(=O)(=O)N2CCCN(S(=O)(=O)c3ccc4c(c3)OCCO4)CC2)cc1 [Compound 125]					
83.8%	2.91 µM			114.61%	2.91 µM	COc1cc(F)c(S(=O)(=O)N2CCCN(S(=O)(=O)c3cccc(NC(C)=O)c3)CC2)c(F)c1 [Compound 126]					
96.7%	0.0366 µM			159.85%	0.058 µM	COc1cc(F)c(S(=O)(=O)N2CCCN(S(=O)(=O)c3ccc4c(c3)OCCO4)CC2)c(F)c1 [Compound 128]					
	0.819 µM		91.11%	123.67%	0.819 µM	CC(=O)Nc1cccc(S(=O)(=O)N2CCCN(S(=O)(=O)c3ccc4c(c3)OCCO4)CC2)c1 [Compound 131]					
81.1%	4.11 µM			123.97%	2.59 µM	CC(=O)Nc1ccc(S(=O)(=O)N2CCCN(S(=O)(=O)c3ccc4c(c3)OCCO4)CC2)cc1 [Compound 132]					
	1.63 µM		60.00%	94.88%	1.03 µM	COc1cc(F)c(S(=O)(=O)N2CCN(S(=O)(=O)c3cccc(NC(C)=O)c3)CC2)c(F)c1 [Compound 133]					
	0.0231 µM		87.00%	141.67%	0.073 µM	COc1cc(F)c(S(=O)(=O)N2CCN(S(=O)(=O)c3cccc(N)c3)CC2)c(F)c1 [Compound 134]					
	0.0411 µM		82.08%	98.13%	0.146 µM	Nc1cccc(S(=O)(=O)N2CCN(S(=O)(=O)c3ccc4c(c3)OCCO4)CC2)c1 [Compound 135]					

From patent US8937067B2, “Activators of human pyruvate kinase” (The United States of America, as represented by the …, priority 2008, dated 2015)
